Assay results: patent US6806359B1, “Hormone receptor compositions and methods” (The Salk Institute for Biological Studies, priority 1986, dated 2004)
Entries after “also recorded” stand apart in the source; their conditions may differ.

Assays:
hMR = biological target: T1, hMR (Homo sapiens, UniProt P08235); experiment: [^3H]aldosterone binding and steroid competition in extracts of pRShMR-transfected COS cells; design: expressed in transfected cells; host or cells: COS cells transfected with pRShMR (DEAE-dextran); settings: 1-, 10-, or 100-fold molar excess of unlabeled steroid
T1 sequence (P08235 1-984): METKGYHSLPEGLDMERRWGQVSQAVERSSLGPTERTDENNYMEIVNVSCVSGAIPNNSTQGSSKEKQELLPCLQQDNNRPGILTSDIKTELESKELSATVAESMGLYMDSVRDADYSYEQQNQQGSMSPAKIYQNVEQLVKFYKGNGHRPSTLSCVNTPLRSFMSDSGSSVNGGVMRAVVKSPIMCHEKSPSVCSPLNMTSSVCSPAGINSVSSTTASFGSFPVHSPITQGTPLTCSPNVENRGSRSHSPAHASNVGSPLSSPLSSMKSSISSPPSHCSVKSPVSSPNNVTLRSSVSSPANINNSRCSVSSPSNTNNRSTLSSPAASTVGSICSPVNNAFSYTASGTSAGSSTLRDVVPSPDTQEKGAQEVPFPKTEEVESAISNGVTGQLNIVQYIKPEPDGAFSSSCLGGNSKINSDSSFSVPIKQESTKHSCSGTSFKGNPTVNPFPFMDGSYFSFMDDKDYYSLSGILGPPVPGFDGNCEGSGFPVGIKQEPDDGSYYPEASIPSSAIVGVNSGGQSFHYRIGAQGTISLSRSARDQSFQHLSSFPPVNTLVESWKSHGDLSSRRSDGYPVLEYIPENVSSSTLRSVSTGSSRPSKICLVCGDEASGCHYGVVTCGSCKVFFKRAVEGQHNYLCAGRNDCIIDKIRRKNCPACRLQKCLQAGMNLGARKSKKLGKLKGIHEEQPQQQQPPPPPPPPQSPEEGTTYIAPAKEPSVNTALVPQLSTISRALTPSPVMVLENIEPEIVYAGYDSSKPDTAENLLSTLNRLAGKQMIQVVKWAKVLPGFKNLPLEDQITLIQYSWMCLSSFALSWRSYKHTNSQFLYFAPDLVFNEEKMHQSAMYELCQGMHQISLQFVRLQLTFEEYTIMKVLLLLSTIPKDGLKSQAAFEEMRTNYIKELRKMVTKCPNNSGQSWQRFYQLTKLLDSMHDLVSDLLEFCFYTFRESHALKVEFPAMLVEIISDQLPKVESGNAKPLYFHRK
Procedure: Ligand specificity of the hMR protein was determined by preparing cytosol extracts from COS cells transfected with pRShMR. Two days after transfection, cells were harvested, and hormone binding was measured by a dextran-treated charcoal assay. […] This provided a measure of the relative affinity of each of these steroids for hMR.
Steroid-binding properties of expressed hMR. FIG. 38 Structure of pRShMR, the hMR expression plasmid (41). […] Each point was assayed in triplicate with 100 micrograms of extract protein in a 200-microliter incubation at 0° C. for 2.5 hours. […] The results of two independent trials representative of these competition experiments are shown. Cold competitor was present in 1-, 10-, or 100-fold molar excess. […] Subconfluent COS cells were transfected by the DEAE-dextran method (42) with 10 micrograms of pRShMR per dish. Cells were maintained for 2 days in DMEM (Dulbecco's modification of Eagle's minimum essential medium) with 5 percent charcoal-treated fetal calf serum, then harvested in […] tris-HCl. (pH 7.8), 10 nM NaCl, 1 mM EDTA, 10 mM Na2MoO4, 5 mM dithiothreitol, antipain (5 microgram/ml), leupeptin (5 microgram/ml), and 500 microM phenylmethylsulfonyl fluoride. After centrifugation at 15,000×g for 10 minutes, extracts were adjusted to 100 mM NaCl and 5 percent glycerol before binding. […] After centrifugation at 15,000×g for 2 minutes at 40C, tritium in supernatant was quantified by liquid scintillation spectrophotometry.

rTR alpha = biological target: T2, rTR alpha (Rattus norvegicus, UniProt P63059); experiment: ^125I-T3 binding to in vitro translated rTR alpha (Scatchard and competition); settings: for competition for T3 binding to rTR alpha by excess compound: excess competitor
T2 construct: made in house; host or cells: rabbit reticulocyte lysate (SP6 transcripts of rbeA12B)
T2 sequence (P63059 1-410 isoform P63059-2): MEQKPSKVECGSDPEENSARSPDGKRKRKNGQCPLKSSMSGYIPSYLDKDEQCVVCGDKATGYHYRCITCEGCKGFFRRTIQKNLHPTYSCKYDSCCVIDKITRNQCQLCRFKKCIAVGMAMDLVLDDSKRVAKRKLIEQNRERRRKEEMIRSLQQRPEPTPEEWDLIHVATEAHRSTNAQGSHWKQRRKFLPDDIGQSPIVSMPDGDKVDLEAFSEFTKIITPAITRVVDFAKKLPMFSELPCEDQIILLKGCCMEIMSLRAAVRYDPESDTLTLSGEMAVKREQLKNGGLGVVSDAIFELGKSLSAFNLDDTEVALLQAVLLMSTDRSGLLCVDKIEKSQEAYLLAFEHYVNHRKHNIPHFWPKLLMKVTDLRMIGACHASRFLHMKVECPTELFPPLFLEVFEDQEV
Source text: In vitro translation and thyroid hormone binding of rTR alpha FIG. 69 rTR alpha was transcribed in vitro and translated in a rabbit reticulocyte lysate. […] Lane 1, no added RNA; lane 2, rbeA12, which contains the entire 5′ untranslated region; lane 3, rbeA12B, which contains only 97 bp of 5′ untranslated sequence. […] Samples from rbeA12B programmed lysates were mixed with increasing concentrations of unlabeled thyroid hormone or analogs to compete with labeled hormone. […] In vitro transcription and translation and hormone binding were performed as described (22, 23).
23. For in vitro transcription, the entire EcoRI insert of rbeA12 was cloned into pGEM1 (Promega Biotec). […] For thyroid hormone binding, transcriptions were performed with SP6 polymerase and 5 to 10 micrograms of rbeA12B linearized with SstI. […] Thyroid hormone binding for both the Scatchard and competition analyses were determined in the same manner, except that unlabeled protein was used for the Scatchard analysis. […] Specific hormone binding was determined by adding a 1000-fold excess of unlabeled hormone and assayed by counting radioactivity eluting in the excluded volume from a Sephadex G-25 fine (Pharmacia) 0.9-by 4.0-cm. column.

GR = biological target: T3, GR (Homo sapiens, UniProt P04150); experiment: hGR functional assay: CAT activity in CV-1 cells cotransfected with pRShGR alpha (or mutant) and pMTVCAT; assay type: cell-based; design: The expression vector linking the RSV LTR to full length hGR cDNA (pRShGR alpha) was designed to obtain high levels of expression; expressed in transfected cells; host or cells: CV-1 monkey kidney cells, cotransfected with pMTVCAT; settings: 100 nM steroid, cotransfected CV-1 cells
T3 sequence (P04150 1-777): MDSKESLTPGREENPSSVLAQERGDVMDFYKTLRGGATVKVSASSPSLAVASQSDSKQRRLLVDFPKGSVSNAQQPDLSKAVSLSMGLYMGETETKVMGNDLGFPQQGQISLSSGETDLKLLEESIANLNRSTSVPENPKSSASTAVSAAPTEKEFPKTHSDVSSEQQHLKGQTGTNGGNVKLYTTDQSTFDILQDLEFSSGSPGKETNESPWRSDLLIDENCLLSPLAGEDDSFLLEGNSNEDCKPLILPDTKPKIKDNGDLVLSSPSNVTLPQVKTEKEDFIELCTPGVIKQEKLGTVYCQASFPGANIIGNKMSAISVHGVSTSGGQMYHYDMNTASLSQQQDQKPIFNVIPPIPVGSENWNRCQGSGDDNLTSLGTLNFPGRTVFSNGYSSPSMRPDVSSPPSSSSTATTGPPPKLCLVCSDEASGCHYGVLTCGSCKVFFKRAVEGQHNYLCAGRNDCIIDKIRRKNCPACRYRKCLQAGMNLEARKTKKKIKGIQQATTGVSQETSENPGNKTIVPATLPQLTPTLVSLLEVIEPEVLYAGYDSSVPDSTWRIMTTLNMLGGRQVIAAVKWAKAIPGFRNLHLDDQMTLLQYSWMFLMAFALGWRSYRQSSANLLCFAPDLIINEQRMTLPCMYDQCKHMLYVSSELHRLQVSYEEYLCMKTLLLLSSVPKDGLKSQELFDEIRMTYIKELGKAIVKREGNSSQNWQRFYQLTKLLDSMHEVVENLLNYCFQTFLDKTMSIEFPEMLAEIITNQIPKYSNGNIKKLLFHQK
Source text: The assay system and strategy used to study the expression of functional hGR from the cloned cDNA (See Experimental Section I) is shown in FIG. 11. In these experiments, a glucocorticoid-responsive promoter/enhancer element linked to a reporter gene was introduced into a receptor-negative cell. […] For our assay, we chose to use the MTV LTR fused to the sequence coding for chloramphenicol acetyltransferase (CAT) (EC2.3.1.28). […] Cotransfection of pMTVCAT (or pGMCAT) with a receptor expression plasmid provides functional receptors that allow induction of CAT activity upon treatment of the transfected cells with glucocorticoid hormone. In addition, biochemical studies such as steroid binding activity and Western blot analysis of the expressed receptors can be performed simultaneously.
The cells are then cultured in the presence or absence of hormone. CV-1 cells were used to monitor induction of CAT activity, and COS cells were used to measure steroid-binding capacity and the expression of hGR protein.
CAT assays were performed as indicated in Experimental Procedures (See Section II. F.). C, chloramphenicol; AC, 3-acetylchloramphenicol.
The levels of CAT activity were plotted as percentages of the maximal response observe in a particular experiment.
Each plasmid preparation used for transfection was purified using two consecutive CsCl-EtBr equilibrium gradients. […]

SMILES	relative affinity for hMR by competition with 5 nM [^3H]aldosterone (in words) (hMR)	competition for T3 binding to rTR alpha by excess compound (rTR alpha)	other results
CC(=O)S[C@@H]1CC2=CC(=O)CC[C@]2(C)[C@H]2CC[C@@]3(C)[C@@H](CC[C@@]34CCC(=O)O4)[C@H]12 [spironolactone]	weaker binding affinity	–	–
N[C@@H](Cc1cc(I)c(Oc2cc(I)c(O)c(I)c2)c(I)c1)C(=O)O [L-thyroxine]	–	–	competition for ^125I-T3 binding to rTR alpha (in words) (rTR alpha; in vitro translated rTR alpha): same characteristic affinities
C[C@]12CC[C@H]3[C@@H](CCC4=CC(=O)CC[C@@]43C)[C@@H]1CC[C@@H]2O [testosterone]	–	no competition	induction of CAT activity by steroid (GR): failed to induce CAT activity
CC(=O)[C@H]1CC[C@H]2[C@@H]3CCC4=CC(=O)CC[C@]4(C)[C@H]3CC[C@]12C [progesterone]	–	no competition	–
C[C@]12C[C@H](O)[C@H]3[C@@H](CCC4=CC(=O)CC[C@@]43C)[C@@H]1CC[C@@H]2C(=O)CO [corticosterone]	very similar affinities; also recorded: compete as effectively as aldosterone itself	–	–
C[C@]12CC[C@H]3[C@@H](CCC4=CC(=O)CC[C@@]43C)[C@@H]1CC[C@@H]2C(=O)CO [deoxycorticosterone]	very similar affinities; also recorded: compete as effectively as aldosterone itself	–	–
C=C1CC[C@H](O)C/C1=C/C=C1\CCC[C@]2(C)[C@@H]([C@H](C)CCCC(C)C)CC[C@@H]12 [vitamin D3]	–	no competition	–
